Experimental data published in ChEMBL document CHEMBL5226380, “O-Alkylazoxymycins A-F, Naturally Occurring Azoxy-Aromatic Compounds from Streptomyces sp. Py50” (2023).
In brackets after ≈: the same amount, converted by molar mass. Counter-ions that a name gives are not always drawn.

Test system: Epidermophyton floccosum
Experiment: Antifungal activity against Epidermophyton floccosum assessed as inhibition of fungal growth incubated for 24 hrs
Format: functional

Compound	MIC50
O=C(O)CCCCCCc1ccccc1/N=[N+](\[O-])c1ccccc1CCCCC(=O)O	23.1 µM (≈ 9.85 µg/mL)
O=C(O)CCCCCCc1ccccc1/N=[N+](\[O-])c1ccccc1CCCCCCC(=O)O	51.2 µM (≈ 23.3 µg/mL)
O=C(O)CCCCCCc1ccccc1/[N+]([O-])=N/c1ccccc1CCCCC(=O)O	10.1 µM (≈ 4.31 µg/mL)
CN(C/C=C/C#CC(C)(C)C)Cc1cccc2ccccc12 [TERBINAFINE HYDROCHLORIDE]	0.003 µM
